Test results reported in patent US11406631B2, “Hydrazone derivatives for preventing or treating EBV-related cancers” (Universite de Bretagne Occidentale, priority 2018, dated 2022).

Columns and labels:
Mutu-1 cells = assay: Cell viability (MTT assay); type: cell-based; set-up: dose or concentration left out as unconfirmed; conditions: concentration range where they increase EBNA1 expression; preliminary results
Description: (§1) Stars indicate significant results (the higher the number of stars, the more significant).
Toxicity of various concentration of G4 ligands on Mutu-1 cells was assessed using the classical MTT assay. The results obtained with various concentrations of compounds 2a and 11a were compared to the result obtained with cells treated by DMSO (compound vehicle).

[1] = system: GAr-based inhibition of protein expression; assay: SDS-PAGE and western blot of 235GAr-OVA and OVA in transfected H1299 cells; type: cell-based
Description: The aim of these experiments is to assess the effect of the inventive compounds on the GAr-based inhibition of protein expression. For this purpose, H1299 cells were transfected by plasmids allowing expression of either EBNA1 or, as a control EBNA1ΔGAr and then treated, or not by various concentrations of the indicated compounds. […] Compounds able to interfere with GAr-based inhibition of translation will increase the steady state level of EBNA1, whereas a having no effect on EBNA1ΔGAr.
The ratio of the quantity of OVA or GAr-OVA relatively to GAPDH (the loading control) are indicated below the gel.

G4-RNA EBNA1 = assay: HT-G4-FID assay: Thiazole Orange displacement from G4-RNA; type: binding, Epstein-Barr virus; conditions: for DC50: K+-100 buffer, pH 7.3, triplicate assays; for affinity for the G-quadruplex structure of EBNA1 (in words, FID data): conclusion from Table 1
Description: This assay is based on the displacement of a fluorescent indicator (Thiazole Orange, hereinafter TO) from a G4-RNA structure (RNA G-quadruplex of EBNA1) by a putative ligand such as the compounds of the invention (see FIG. 1). This displacement is quantified as % TO displacement. The percentage of TO displacement is calculated from the fluorescence intensity (F) in the presence of a putative ligand, using:
[formula] where F0 is fluorescence intensity of the probe (TO) bound to RNA without added ligand. The percentage of displacement is then plotted as a function of the concentration of added ligand. The RNA affinity of putative ligands is evaluated using the concentration of a ligand required to decrease the fluorescence of the probe by 50% (noted DC50), which is determined graphically from non-linear fitting of the displacement curve. […] 2. Materials and Reagents
Thiazole Orange (TO) and cacodylic acid were purchased from Aldrich and used without further purification. The oligoribonucleotide EBNA1 [5′-r(GGGGCAGGAGCAGGAGGA)-3′] (SEQ ID no 1) purified by reversed-phase HPLC was purchased from Eurogentec.
Stock solutions of the ligands (2 mM in DMSO (dimethylsulfoxyde)) were used for G4-FID assay, unless otherwise stated, and were stored at −20° C. Stock solutions of TO (2 mM in DMSO) were used for G4-FID assay. Fluorescent probe powders and solutions were stored and used, protected from light and used as aliquots to avoid freeze-thaw cycles. HT-G4-FID measurements were performed on a FLUOstar Omega microplate reader (BMG Labtech) with 96-well Non-Binding Surface black with black bottom polystyrene microplates (Corning ref 3650).
For HT-G4-FID assay, the oligonucleotide was dissolved in K^+−100-buffer (10 mM lithium cacodylate, pH 7.3, 100 mM KCl, 1 mM EDTA, 1% DMSO). Oligonucleotide concentrations were determined on the basis of their absorbance at 260 nm. Prior to use, the oligonucleotide was pre-treated by heating at 95° C. for 5 min followed by a slow cooling to 25° C.
Each G4-FID assay is performed in a 96-well microplates. […] The microplate is filled with (a) K^+−100 solution (qs for 200 μL) (b) 10 μL of a solution of pre-folded oligonucleotides (5 μM) and TO (10 μM-2 eq) and (c) an extemporaneously prepared 5 μM ligand solution in K^+−100 buffer (0 to 100 μL along the line of the microplate, i.e., from column […]: 0, 0.125, 0.25, 0.375, 0.5, 0.625, 0.75, 1.0, 1.25, 1.5, 2.0 and 2.5 μM) (see Largy et al., Anal Bioanal Chem 2011, 400, 34193427). After 5 min of orbital shaking at 500 rpm, fluorescence intensity is measured using the following experimental parameters: positioning delay: 0.5 s, 20 flashes per well, emission/excitation filters (nm): 485/520, gain adjusted at 80% of the fluorescence from the most fluorescent well (i.e., a well from column A).
Results are shown in Table 1 below (lower DC50 values indicate higher affinity of compounds to the G4-RNA structure of EBNA1).

[2] = system: interaction between NCL and the G4s of EBNA1 mRNA; assay: Proximity ligation assay (PLA) in H1299 cells transfected with EBNA1 plasmids; type: cell-based; conditions: 5 μM
Description: as §1

Compound | toxicity on Mutu-1 cells (Mutu-1 cells) | OVA expression ([1]; control without GAr) | steady-state level of 235GAr-OVA ([1]; dose-dependent, relative to GAPDH) | DC50 (G4-RNA EBNA1) [nM] | affinity for the G-quadruplex structure of EBNA1 (in words, FID data) (G4-RNA EBNA1) | number of PLA dots and their intensity [2] | number of nuclear PLA dots per cell [2]
C[n+]1ccc(C=NNC(=O)c2cccc(C(=O)NN=Cc3cc[n+](C)c4ccccc34)n2)c2ccccc21.[I-].[I-] [Compound 2a, N′^2, N′^6-Bis[(1-methylquinolinium-4-yl)methylene]pyridine-2,6-dicarbohydrazide iodide] | not significantly toxic | no significant effect | significant increase | 260 ± 50 | particularly high affinity | significantly reduce | significantly reduced
C[n+]1ccc(C=NNC(=O)c2ccc3ccc4ccc(C(=O)NN=Cc5cc[n+](C)c6ccccc56)nc4c3n2)c2ccccc21.[I-].[I-] [Compound 11a, N′^2,N′^9-Bis[(1-methylquinolinium-4-yl)methylene]-1,10-phenanthroline-2,9-dicarbohydrazide iodide] | not significantly toxic |  |  | 300 ± 30 | particularly high affinity | significantly reduce | significantly reduced
